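Protocol summary: plate cells (96-well), add compound at 5 concentrations, incubate 48 h, interpolate endpoints linearly. Abbreviation: GI50, concentration required for 50% inhibition of growth.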 Calls of active or inactive are those of the source. Cut-off read from the data, not from the text of the source: active = GI50 up to about 1.1 µM and inactive = higher.
Experiments:
Assay in all cases: NCI tumour cell line growth inhibition, 48 h
[1] = tested on: HOP-92
[2] = tested on: SF-295
[3] = tested on: CCRF-CEM
[4] = tested on: MDA-MB-435
[5] = tested on: SW-620
[6] = tested on: BT-549
[7] = tested on: OVCAR-3
[8] = tested on: OVCAR-4
[9] = tested on: NCI-H23
[10] = tested on: SF-268
[11] = tested on: KM12
[12] = tested on: SR
[13] = tested on: A549
[14] = tested on: HCT-116
[15] = tested on: DU-145
[16] = tested on: UACC-62
[17] = tested on: MDA-N
[18] = tested on: OVCAR-8
[19] = tested on: T47D
[20] = tested on: SK-OV-3

Measured: GI50

CCn1c2ccccc2c2nnc(NCCCO)nc21
inactive: [1] > 100 µM | [2] > 100 µM | [3] > 100 µM | [4] > 100 µM | [5] > 100 µM | [6] > 100 µM | [7] > 100 µM | [8] > 100 µM | [9] > 100 µM | [10] > 100 µM | [11] > 100 µM | [12] 92.5 µM | [13] > 100 µM | [14] > 100 µM | [15] > 100 µM | [16] > 100 µM | [17] > 100 µM | [18] > 100 µM | [19] 82 µM | [20] > 100 µM

O=c1sc2c(s1)SSSSS2
inactive: [1] > 50 µM | [2] > 50 µM | [3] 9.18 µM | [4] > 50 µM | [5] > 50 µM | [6] > 50 µM | [7] 41.9 µM | [8] > 50 µM | [9] > 50 µM | [10] 28.6 µM | [11] > 50 µM | [12] > 50 µM | [13] > 50 µM | [14] > 50 µM | [15] > 50 µM | [16] 35.2 µM | [17] > 50 µM | [18] > 50 µM | [19] > 50 µM | [20] > 50 µM

CC(=O)NC1C(O)C(O)C(CO)OC1n1ncc(=O)[nH]c1=O (stereo not given)
inactive: [1] > 100 µM | [2] > 100 µM | [3] > 100 µM | [4] > 100 µM | [5] > 100 µM | [6] > 100 µM | [7] > 100 µM | [8] > 100 µM | [9] > 100 µM | [10] > 100 µM | [11] > 100 µM | [12] > 100 µM | [13] > 100 µM | [14] > 100 µM | [15] > 100 µM | [16] > 100 µM | [17] > 100 µM | [18] > 100 µM | [19] > 100 µM | [20] > 100 µM

CCOC(=O)Cc1ccc(Nc2nc3ccccc3nc2C(=O)OCC)cc1
inactive: [1] 43.8 µM | [2] 32.9 µM | [3] > 100 µM | [4] > 100 µM | [5] > 100 µM | [6] 26.2 µM | [7] > 100 µM | [8] 77.1 µM | [9] 47.5 µM | [10] 53.7 µM | [11] > 100 µM | [12] > 100 µM | [13] 35.2 µM | [14] > 100 µM | [15] 95.9 µM | [16] 45.2 µM | [17] > 100 µM | [18] 56.1 µM | [19] 36.6 µM | [20] 54.1 µM

COc1ccccc1NC(=O)CC(=O)NN
inactive: [1] > 100 µM | [2] > 100 µM | [3] > 100 µM | [4] > 100 µM | [5] > 100 µM | [6] > 100 µM | [7] > 100 µM | [8] > 100 µM | [9] > 100 µM | [10] > 100 µM | [11] > 100 µM | [12] > 100 µM | [13] > 100 µM | [14] > 100 µM | [15] > 100 µM | [16] > 100 µM | [17] > 100 µM | [18] > 100 µM | [19] > 100 µM | [20] > 100 µM

Cc1ccc([N+](=O)[O-])cc1S(=O)(=O)Nc1ccc(C2=NN(S(=O)(=O)c3cc([N+](=O)[O-])ccc3C)C(c3ccccc3)C2)cc1 (stereo not given)
inactive: [1] 35.8 µM | [2] 21.7 µM | [3] 36.1 µM | [4] 36.8 µM | [5] 50.5 µM | [6] 21.8 µM | [7] 26 µM | [8] 33.9 µM | [9] 24.2 µM | [10] 17.6 µM | [11] 34.9 µM | [12] 32 µM | [13] 29.4 µM | [14] 18.5 µM | [15] 42.3 µM | [16] 16 µM | [17] 30.1 µM | [18] 42.2 µM | [19] 41.4 µM | [20] 27.4 µM

Cn1c(=O)c2c(nc3n(C)c(=O)c4ccccc4n23)n(C)c1=O
inactive: [1] 43.6 µM | [2] 22.4 µM | [3] 13.5 µM | [4] > 100 µM | [5] 42.2 µM | [6] > 80.4 µM | [7] > 100 µM | [8] > 100 µM | [9] 40.4 µM | [10] 68.5 µM | [11] 53.6 µM | [12] 3.67 µM | [13] 9.98 µM | [14] 71 µM | [15] 21.9 µM | [16] 28.9 µM | [17] > 100 µM | [18] 33 µM | [19] > 71 µM | [20] 37.8 µM

O=C(c1c(F)c(F)c(F)c(F)c1F)N1CCN(C(=O)c2c(F)c(F)c(F)c(F)c2F)C1=S
inactive: [1] 3.89 µM | [2] 15.1 µM | [3] 2.79 µM | [4] 3.3 µM | [5] 1.84 µM | [6] 13.6 µM | [7] 5.08 µM | [8] 5.22 µM | [9] 6.81 µM | [10] 11.3 µM | [11] 6 µM | [12] 3.38 µM | [13] 14.4 µM | [14] 2.84 µM | [15] 14 µM | [16] 4.5 µM | [17] 2.48 µM | [18] 5.05 µM | [19] 6.46 µM | [20] 5.05 µM

CC1=NN(c2cccc(Cl)c2)C2(C1=C/C=C/c1ccccc1)C(Cl)C(=O)N2c1nc2ccccc2s1 (stereo not given)
inactive: [1] 19.5 µM | [2] 11 µM | [3] 8.05 µM | [4] 24.6 µM | [5] 18.9 µM | [6] 32.1 µM | [7] 24.7 µM | [8] 35.7 µM | [9] 16.9 µM | [10] 7.74 µM | [11] 23.8 µM | [12] 1.51 µM | [13] 43 µM | [14] 19.3 µM | [15] 9.33 µM | [16] 31.5 µM | [17] 26.8 µM | [18] 17.9 µM | [19] 15.8 µM | [20] 29 µM

CC1Cc2cc(O)ccc2C2[C@@H]1C1CC[C@H](O)[C@@]1(C)C[C@@H]2O[N+](=O)[O-] (stereo not given in full)
inactive: [1] 13.1 µM | [2] 7.29 µM | [3] 5.83 µM | [4] 2.52 µM | [5] 6.76 µM | [6] 10.9 µM | [7] 9.12 µM | [8] 26.7 µM | [9] 12 µM | [10] 16.2 µM | [11] 19.7 µM | [12] 5.56 µM | [13] 11 µM | [14] 5.18 µM | [15] 7.45 µM | [16] 5.46 µM | [17] 1.96 µM | [18] 16.8 µM | [19] 9.55 µM | [20] 19.6 µM
